Experimental findings from the OligoGym collection are described below.

The series addresses UBE3A-ATS. Nature of the series: mouse, dose not given. As to conditions: ASO.

HELM strings list units from the 5' end as sugar, base in round brackets, then linkage (d deoxyribose, r ribose, m 2'-O-methyl, p phosphodiester). Strings are as the collection lists them; they lack the last nucleoside at the 3' end of the tested compound. [moe] = 2'-O-(2-methoxyethyl) (MOE); [sp] = phosphorothioate linkage; [m5C] = 5-methylcytosine

For “RNA1{[moe](G)[sp].[moe]([m5C])p.[moe](T)p.[moe](A)p.[moe](T)p.d([m5C])[sp].d(T)[sp].d(G)[sp].d(T)[sp].d(A)[sp].d([m5C])[sp].d(A)[sp].d(A)[sp].d(A)[sp].d(A)[sp].[moe](T)p.[moe](G)p.[moe](G)[sp].[moe](A)}$$$$ (last 3' nucleoside missing)”, the 3 h FOB score turned out to be 0 score 0-7.

Turning to “RNA1{[moe](G)[sp].[moe]([m5C])p.[moe](T)p.[moe](G)[sp].d(A)[sp].d(T)[sp].d([m5C])[sp].d(A)[sp].d([m5C])[sp].d(A)[sp].d(T)[sp].d(T)[sp].[moe](A)p.[moe]([m5C])p.[moe]([m5C])p.[moe]([m5C])[sp].[moe](A)}$$$$ (last 3' nucleoside missing)”, the 3 h FOB score worked out at 0 score 0-7.

With “RNA1{[moe](G)[sp].[moe]([m5C])p.[moe](T)p.[moe](G)p.[moe](A)[sp].d(T)[sp].d([m5C])[sp].d(A)[sp].d([m5C])[sp].d(A)[sp].d(T)[sp].d(T)[sp].d(A)[sp].[moe]([m5C])p.[moe]([m5C])p.[moe]([m5C])[sp].[moe](A)}$$$$ (last 3' nucleoside missing)”, the 3 h FOB score is 1 score 0-7.

For “RNA1{[moe](G)[sp].[moe]([m5C])p.[moe](T)p.[moe](G)p.[moe](A)p.[moe](T)[sp].d([m5C])[sp].d(A)[sp].d([m5C])[sp].d(A)[sp].d(T)[sp].d(T)[sp].d(A)[sp].d([m5C])[sp].[moe]([m5C])p.[moe]([m5C])[sp].[moe](A)}$$$$ (last 3' nucleoside missing)”, the 3 h FOB score was 0 score 0-7.

Turning to “RNA1{[moe](G)[sp].[moe]([m5C])p.[moe](T)p.[moe](G)p.[moe](A)p.[moe](T)p.d([m5C])[sp].d(A)[sp].d([m5C])[sp].d(A)[sp].d(T)[sp].d(T)[sp].d(A)[sp].d([m5C])[sp].d([m5C])[sp].d([m5C])[sp].[moe](A)p.[moe](T)[sp].[moe]([m5C])}$$$$ (last 3' nucleoside missing)”, the 3 h FOB score worked out at 0 score 0-7.

For the substance “RNA1{[moe](G)[sp].[moe]([m5C])p.[moe](T)p.[moe](G)p.[moe](A)p.d(T)[sp].d([m5C])[sp].d(A)[sp].d([m5C])[sp].d(A)[sp].d(T)[sp].d(T)[sp].d(A)[sp].d([m5C])[sp].d([m5C])[sp].[moe]([m5C])p.[moe](A)p.[moe](T)[sp].[moe]([m5C])}$$$$ (last 3' nucleoside missing)”, the 3 h FOB score stood at 0 score 0-7.

Regarding “RNA1{[moe](G)[sp].[moe]([m5C])p.[moe](T)p.[moe](G)p.[moe](T)p.d(A)[sp].d(A)[sp].d(G)[sp].d(T)[sp].d(A)[sp].d(T)[sp].d(A)[sp].d(G)[sp].d(A)[sp].d(T)[sp].[moe](G)p.[moe]([m5C])p.[moe]([m5C])[sp].[moe](T)}$$$$ (last 3' nucleoside missing)”, the 3 h FOB score turned out to be 2 score 0-7.

On to “RNA1{[moe](G)[sp].[moe]([m5C])p.[moe](T)p.[moe](G)p.d(A)[sp].d(T)[sp].d([m5C])[sp].d(A)[sp].d([m5C])[sp].d(A)[sp].d(T)[sp].d(T)[sp].d(A)[sp].d([m5C])[sp].[moe]([m5C])p.[moe]([m5C])p.[moe](A)p.[moe](T)[sp].[moe]([m5C])}$$$$ (last 3' nucleoside missing)”, for which the 3 h FOB score is 0 score 0-7.

As for “RNA1{[moe](G)[sp].[moe]([m5C])p.[moe](T)p.[moe](T)p.[moe](A)p.d(G)[sp].d(G)[sp].d([m5C])[sp].d(A)[sp].d(A)[sp].d(T)[sp].d(G)[sp].d(G)[sp].d(A)[sp].d([m5C])[sp].[moe](T)p.[moe](T)p.[moe](A)[sp].[moe](G)}$$$$ (last 3' nucleoside missing)”, the 3 h FOB score is 5.5 score 0-7.

“RNA1{[moe](G)[sp].[moe]([m5C])p.[moe](T)p.[moe](T)p.[moe](A)p.d(T)[sp].d(G)[sp].d(T)[sp].d(A)[sp].d(G)[sp].d([m5C])[sp].d(T)[sp].d([m5C])[sp].d(A)[sp].d(G)[sp].[moe]([m5C])p.[moe](T)p.[moe]([m5C])[sp].[moe](A)}$$$$ (last 3' nucleoside missing)” returned a 3 h FOB score of 1 score 0-7.

In turn, “RNA1{[moe](G)[sp].[moe]([m5C])p.[moe](T)p.[moe](T)p.[moe](T)p.d(A)[sp].d(G)[sp].d(T)[sp].d(A)[sp].d(T)[sp].d(G)[sp].d(T)[sp].d([m5C])[sp].d(G)[sp].d(A)[sp].[moe](G)p.[moe](A)p.[moe](A)[sp].[moe]([m5C])}$$$$ (last 3' nucleoside missing)” came in with a 3 h FOB score of 6 score 0-7.

In turn, “RNA1{[moe](G)[sp].[moe]([m5C])p.[moe](T)p.[moe](T)p.[moe](T)p.d(A)[sp].d(T)[sp].d(A)[sp].d([m5C])[sp].d(T)[sp].d(T)[sp].d(T)[sp].d(A)[sp].d([m5C])[sp].d([m5C])[sp].[moe]([m5C])p.[moe](A)p.[moe](A)[sp].[moe]([m5C])}$$$$ (last 3' nucleoside missing)” gave a 3 h FOB score of 1 score 0-7.

Substance “RNA1{[moe](G)[sp].[moe]([m5C])p.[moe](T)p.[moe](T)p.[moe](T)p.d(T)[sp].d([m5C])[sp].d(A)[sp].d(G)[sp].d(T)[sp].d([m5C])[sp].d(A)[sp].d(G)[sp].d(G)[sp].d(T)[sp].[moe](A)p.[moe]([m5C])p.[moe](A)[sp].[moe](G)}$$$$ (last 3' nucleoside missing)” yielded a 3 h FOB score of 6 score 0-7.

“RNA1{[moe](G)[sp].[moe]([m5C])p.[moe](T)p.[moe](T)p.[moe]([m5C])p.[moe](A)p.d([m5C])[sp].d([m5C])[sp].d(A)[sp].d(T)[sp].d(T)[sp].d(T)[sp].d(T)[sp].d(G)[sp].d(A)[sp].d([m5C])[sp].[moe]([m5C])p.[moe](T)[sp].[moe](T)}$$$$ (last 3' nucleoside missing)” displayed a 3 h FOB score of 1 score 0-7.

Regarding “RNA1{[moe](G)[sp].[moe]([m5C])p.[moe](T)p.[moe](T)p.[moe]([m5C])p.d(A)[sp].d([m5C])[sp].d([m5C])[sp].d(A)[sp].d(T)[sp].d(T)[sp].d(T)[sp].d(T)[sp].d(G)[sp].d(A)[sp].[moe]([m5C])p.[moe]([m5C])p.[moe](T)[sp].[moe](T)}$$$$ (last 3' nucleoside missing)”, the 3 h FOB score is 2.2 score 0-7.

In turn, “RNA1{[moe](G)[sp].[moe]([m5C])p.[moe](T)p.[moe](T)p.d([m5C])[sp].d(A)[sp].d([m5C])[sp].d([m5C])[sp].d(A)[sp].d(T)[sp].d(T)[sp].d(T)[sp].d(T)[sp].d(G)[sp].[moe](A)p.[moe]([m5C])p.[moe]([m5C])p.[moe](T)[sp].[moe](T)}$$$$ (last 3' nucleoside missing)” returned a 3 h FOB score of 0 score 0-7.

“RNA1{[moe](G)[sp].[moe]([m5C])p.[moe](T)p.[moe]([m5C])[sp].d(A)[sp].d(G)[sp].d(T)[sp].d(T)[sp].d(A)[sp].d(G)[sp].d(G)[sp].d(T)[sp].[moe](T)p.[moe](A)p.[moe](G)p.[moe](T)[sp].[moe](G)}$$$$ (last 3' nucleoside missing)” registered a 3 h FOB score of 4 score 0-7.

“RNA1{[moe](G)[sp].[moe]([m5C])p.[moe](T)p.[moe]([m5C])p.[moe](A)[sp].d(G)[sp].d(T)[sp].d(T)[sp].d(A)[sp].d(G)[sp].d(G)[sp].d(T)[sp].d(T)[sp].[moe](A)p.[moe](G)p.[moe](T)[sp].[moe](G)}$$$$ (last 3' nucleoside missing)”: the 3 h FOB score worked out at 2.3 score 0-7.

“RNA1{[moe](G)[sp].[moe]([m5C])p.[moe](T)p.[moe]([m5C])p.[moe](A)p.[moe](G)[sp].d(T)[sp].d(T)[sp].d(A)[sp].d(G)[sp].d(G)[sp].d(T)[sp].d(T)[sp].d(A)[sp].[moe](G)p.[moe](T)[sp].[moe](G)}$$$$ (last 3' nucleoside missing)” yielded a 3 h FOB score of 5 score 0-7.

Take “RNA1{[moe](G)[sp].[moe]([m5C])p.[moe](T)p.[moe]([m5C])p.[moe](A)p.[moe](G)p.d(T)[sp].d(T)[sp].d(A)[sp].d(G)[sp].d(G)[sp].d(T)[sp].d(T)[sp].d(A)[sp].d(G)[sp].d(T)[sp].[moe](G)p.[moe]([m5C])[sp].[moe](A)}$$$$ (last 3' nucleoside missing)”: the 3 h FOB score stood at 4 score 0-7.

With “RNA1{[moe](G)[sp].[moe]([m5C])p.[moe](T)p.[moe]([m5C])p.[moe](A)p.d(G)[sp].d(T)[sp].d(T)[sp].d(A)[sp].d(G)[sp].d(G)[sp].d(T)[sp].d(T)[sp].d(A)[sp].d(G)[sp].[moe](T)p.[moe](G)p.[moe]([m5C])[sp].[moe](A)}$$$$ (last 3' nucleoside missing)”, the 3 h FOB score is 3.8 score 0-7.

For “RNA1{[moe](G)[sp].[moe]([m5C])p.[moe](T)p.[moe]([m5C])p.[moe](A)p.d(T)[sp].d([m5C])[sp].d(A)[sp].d([m5C])[sp].d(A)[sp].d(A)[sp].d([m5C])[sp].d(T)[sp].d(G)[sp].d(G)[sp].[moe](G)p.[moe](T)p.[moe](G)[sp].[moe](G)}$$$$ (last 3' nucleoside missing)”, the 3 h FOB score worked out at 1 score 0-7.

Regarding “RNA1{[moe](G)[sp].[moe]([m5C])p.[moe](T)p.[moe]([m5C])p.d(A)[sp].d(G)[sp].d(T)[sp].d(T)[sp].d(A)[sp].d(G)[sp].d(G)[sp].d(T)[sp].d(T)[sp].d(A)[sp].[moe](G)p.[moe](T)p.[moe](G)p.[moe]([m5C])[sp].[moe](A)}$$$$ (last 3' nucleoside missing)”, the 3 h FOB score was found to be 4 score 0-7.

For the substance “RNA1{[moe](G)[sp].[moe]([m5C])p.[moe]([m5C])p.[moe](A)[sp].d(G)[sp].d(G)[sp].d(T)[sp].d(G)[sp].d(T)[sp].d([m5C])[sp].d(T)[sp].d(T)[sp].[moe](A)p.[moe](T)p.[moe](A)p.[moe](T)[sp].[moe]([m5C])}$$$$ (last 3' nucleoside missing)”, the 3 h FOB score came to 1 score 0-7.

Substance “RNA1{[moe](G)[sp].[moe]([m5C])p.[moe]([m5C])p.[moe](A)p.[moe](G)[sp].d(G)[sp].d(T)[sp].d(G)[sp].d(T)[sp].d([m5C])[sp].d(T)[sp].d(T)[sp].d(A)[sp].[moe](T)p.[moe](A)p.[moe](T)[sp].[moe]([m5C])}$$$$ (last 3' nucleoside missing)” had a 3 h FOB score of 0 score 0-7.

With “RNA1{[moe](G)[sp].[moe]([m5C])p.[moe]([m5C])p.[moe](A)p.[moe](G)p.[moe](G)[sp].d(T)[sp].d(G)[sp].d(T)[sp].d([m5C])[sp].d(T)[sp].d(T)[sp].d(A)[sp].d(T)[sp].[moe](A)p.[moe](T)[sp].[moe]([m5C])}$$$$ (last 3' nucleoside missing)”, the 3 h FOB score worked out at 0 score 0-7.
